Data set [1] deals with doxorubicin-induced aged C57BL6J mice. Description: Lipofuscin staining in muscle of doxorubicin-aged mice, Example 22-4, Table 33. Type of data set: in vivo, mouse. The settings on record: staining area, untreated aged = 100. As to the method:
(§1) Eight-week-old male C57BL6J mice (KRIBB Laboratory Animal Resource Center) were acclimated to the experimental environment for one week. Afterwards, the anticancer agent doxorubicin was administered intraperitoneally at a concentration of 10 mg/kg, inducing aging for more than 10 days. The aging-induced mice were randomly assigned to experimental and control groups. LX-403 was mixed with a 10% ethanol solution of PEG400 and administered orally at a concentration of 25 mg/kg or intradermally at a concentration of 1 μM for 21 days. LX-1801 was mixed in distilled water with 4% DMSO, 30% PEG300, and 5% Tween80 and administered intradermally at a concentration of 0.4 μM daily for 21 days. LX-2001 was mixed in PBS and administered intradermally at a concentration of 2 μM daily for 21 days. LX-2002 was mixed in distilled water with 4% DMSO, 30% PEG300, and 5% Tween80 and administered intradermally at a concentration of 2 μM daily for 21 days. […] LX-2005 was mixed in distilled water with 4% DMSO, 30% PEG300, and 5% Tween80 and administered intradermally at a concentration of 90 μM daily for 21 days. LX-2007 was mixed in distilled water with 4% DMSO, 30% PEG300, and 5% Tween80 and administered intradermally at a concentration of 90 μM daily for 21 days. […]

Data set [2] has the same test system. As to the kind of experiment: Serum IL6 (ELISA) in doxorubicin-aged mice, Example 22-5, Table 34. The format is in vivo, mouse. To be noted: untreated aged = 100. As for the experimental part: as §1, with “days.” for “days. LX-2007 was mixed in distilled water with 4% DMSO, 30% PEG300, and 5% Tween80 and administered intradermally at a concentration of 90 μM daily for 21 days.”
The amount of IL6, a senescence-associated secretory factor (SASP), was measured in serum collected from mice using the same method as in Example 7-5 of WO2023-085787 A1 using an enzyme-linked immunosorbent assay (ELISA Kit, R&D Systems).

Data set [3] relates to transplanted kidney of aged mice. As to the kind of experiment: Efficiency of kidney transplantation from aged mice into young mice. The format is in vivo, mouse. As for the experimental part:
Furthermore, the efficiency of kidney transplantation following the removal of senescent cells from the kidney was evaluated. Kidneys extracted from aged mice of Example 21-1, untreated and treated with LX-403, were transplanted into 3-month-old young mice. Three days later, the efficiency of kidney transplantation was assessed through analysis of markers of aging and kidney damage. […] This improvement in transplantation efficiency was also observed when kidneys extracted from aged mice were transplanted after removing senescent cells under ex vivo conditions, such as by culturing them in an LX-403-containing medium.

Another data set deals with senescent A549 cells. As to the kind of experiment: Survival of senescent A549 cells treated with supernatant from death-induced cancer cells, Example 14. The format is cell-based, human. To be noted: for viability at 30 µM: Homo sapiens. As for the experimental part:
In the same way as Examples 12 and 13, senescence of cancer (A549) cells was induced by treatment with doxorubicin or the control group (DMSO), and the cells were cultured. The cells were treated with LX-405 at a concentration of 30 μM. 3 days later, cell viability was measured using CellTiter-Glo Luminescent Cell Viability Assay (Promega) or an optical microscope. In the same manner as in Example 13, the medium supernatants comprising secreted fluid from normally proliferating and senescent cancer cells was obtained. Normally proliferating and senescent-induced cancer cells were treated with the medium supernatants.
Furthermore, other test compounds were used in the same manner in Example 12 above at high concentrations of 30 μM, 90 μM, and 270 μM, respectively, and the cultured medium supernatant comprising secreted fluid from aged cancer cells that were killed were obtained. As a result of measuring the degree of death of aged cancer cells, it was confirmed that aged cancer cells can be effectively removed, as shown in Example 12.

With `O=C1C2CCN(CC2)C1CNC(=O)C(F)(F)F` (stereo not shown) [LX-5701], the “Lipofuscin (%), Muscle” value in data set [1] is 64 (±13.1) %. Besides, the “IL6 (%)” value in data set [2] is 57 (±21.5) %.
Regarding `O=C(C(C[N+](=O)[O-])=NO)N1CCN(C(c2ccc(Cl)cc2)c2ccc(Cl)cc2)CC1` [LX-403], the “p16 of transplanted kidney, serum urea and creatinine” value in data set [3] (3 days after transplantation) is “reduced”. Moreover, the “efficiency of kidney transplantation” value in data set [3] (mouse, in vivo) is listed as “improves the efficiency of kidney transplantation”.
A word on the viability: it is a read-out of living cells in per cent, often relative to untreated cells. Read a high viability as less harm to the cells. As to `COC(=O)c1ccc([C@H]2c3[nH]c4ccccc4c3C[C@H](C(=O)OC)N2C(=O)CCl)cc1` [LX-405], in the data set with senescent A549 cells (A549, supernatant from No Cells), the Survival is 98.2 (±2.8) %. In addition, the viability at 30 µM is 78.8% in the data set on senescent A549 cells (A549, A549, supernatant from death-induced proliferating cells) and 72.5% with senescent A549 cells (A549, A549, supernatant from death-induced senescent cells).
